Source: patent US9791463B2, “Methods for the selective detection of alkyne-presenting molecules and related compositions and systems” (Lawrence Livermore National Security, LLC, priority 2013, dated 2017)

Columns and labels:
[1] = Fluorescence measurement of azido probe and EE2-probe adduct (spectrometer); format: physicochemical; conditions: excited at λ=319 nm; initial measurements
Excerpt: A feature of the probes herein described is the means by which a readable fluorescent signal can be reliably detected once the azidonaphthalimidoyl probe (see Example 1, compound 3) reacts with EE2. Thus, fluorescent measurements can be conducted on azido probe 3 (Example 1) before and after its reaction with commercially available 17α-ethinylestradiol (EE2, 1) (FIG. 5). […] Thus, the fluorescence profile of the EE2-probe adduct 4 can be obtained at different concentrations in order to obtain the lowest limit of detection for this analytical approach (Panel 1 of FIG. 5). Once that lower limit has been determined, a second set of experiments can be undertaken to test the efficacy and fidelity of the Click reaction. […] After the overnight run, the samples can be extracted into an organic layer (CH2Cl2 or diethyl ether), evaporated, redissolved in the solvent of choice for the fluorescence measurements (e.g. H2O, or a combination of MeOH/H2O) and their fluorescent intensities measured. This second set of experiments is designed to test the real case scenario where the actual, unknown EE2 concentration in a given sample can be detected using the azido probe.
Once an azido probe as herein described (e.g. 3) is synthesized (Example 1), it can be reacted with commercially available EE2. […] The calculated Stokes' shift based on this preliminary measurements is Δλ=48 nm.

[2] = Visual fluorescence analysis with a UV lamp (long wavelength, 365 nm); format: physicochemical; conditions: λ=365 nm; equimolar solutions of probe and adduct
Excerpt: Both vials contain equimolar amounts of the azido probe and EE2-probe adduct respectively.
Once an azido probe as herein described (e.g. 3) is synthesized (Example 1), it can be reacted with commercially available EE2. For example, reaction of azido probe 3 with EE2 in the presence of CuSO4.5H2O and sodium ascorbate in a 2:1 tert-butanol-water mixture at room temperature overnight yielded the triazole-containing EE2-probe adduct 4 in nearly quantitative yield (>95%) as an off-white solid after column chromatography. The use of another source of Cu(I) ion such as CuBr or CuI can be employed in this step, eliminating the need for sodium ascorbate. However, copper(I) halides can be avoided if a reduction in unwanted background fluorescence when using the spectrophotometer is desired. If a cost reduction is desired, instead of copper(I) halides readily available and inexpensive Cu(II) sulfate pentahydrate and sodium ascorbate can be purchased in multigram quantities and used in reactions with EE2. […] The calculated Stokes' shift based on this preliminary measurements is Δλ=48 nm.

Structure (SMILES): [N-]=[N+]=Nc1ccc2c3c(cccc13)C(=O)N(CCOCCO)C2=O [Probe 3]
- fluorescence of the probe [1]: marginal fluorescence
- qualitative fluorescence under UV lamp [2]: does not
